Reference: PMC6198280, “Chemical Instability and Promiscuity of Arylmethylidenepyrazolinone-Based MDMX Inhibitors” (ACS Chemical Biology, 2018)

Target: T1, MDMX (Homo sapiens, UniProt O15151)
T1 construct: gene MDM4
T1 sequence (O15151 1-120): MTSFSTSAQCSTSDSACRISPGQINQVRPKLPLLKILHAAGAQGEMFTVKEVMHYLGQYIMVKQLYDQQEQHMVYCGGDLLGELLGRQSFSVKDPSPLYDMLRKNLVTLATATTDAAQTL
Test: ITC; MALDI-TOF MS of covalent adducts, no reducing agent
Assay type: binding

## CCOc1cc(/C=C2\C(=O)N(c3ccccc3)N=C2C)cc(Cl)c1OCC(=O)OC [compound 1, SJ-172550]
  Kd: > 13 µM
